In brackets after ≈: the same amount, converted by molar mass. Read-outs that look alike come from different tables or passages of the source.
What was measured:
Format in all cases: cell-based
[1] = system: Klebsiella pneumoniae 8045; test: Antibacterial activity, Heart Infusion Agar Dilution Method (pH 7.2)
Method: (§1) Antibacterial activities of the compounds obtained in Examples 6 and 8 are measured according to the Heart Infusion Agar Dilution Method (pH 7.2). Cefazolin is used as a control.

Proteus vulgaris 6897 = test: as above
Method: as §1

[2] = system: Staphylococcus aureus 209-P; test: as above
Method: as §1

Escherichia coli Juhl = test: as above
Method: as §1

[3] = system: Staphylococcus epidermidis; test: as above
Method: as §1

Serratia marcescens T-26 = test: as above; settings: T26
Method: as §1

Proteus mirabilis 1287 = test: as above
Method: as §1

Escherichia coli NIHJC-2 = test: as above
Method: as §1

Serratia marcescens T-55 = test: as above; settings: T55
Method: as §1

Proteus morganii KY4298 = test: as above; settings: Morganella morganii
Method: as §1

[4] = system: Klebsiella pneumoniae Y-60; test: as above; settings: Y60
Method: as §1

Proteus rettgeri KY4289 = test: as above; settings: Providencia rettgeri
Method: as §1

[5] = system: Staphylococcus aureus Smith; test: as above
Method: as §1

[6] = system: Pseudomonas aeruginosa 145; test: as above
Method: as §1

Pseudomonas putida F264 = test: as above
Method: as §1

[7] = system: Escherichia coli GN 2411-5; test: as above; settings: GN2411
Method: as §1

[8] = system: Pseudomonas aeruginosa No. 1; test: as above
Method: as §1

[9] = system: Salmonella typhosa KY4278; test: Antibacterial activity, Heart Infusion Agar Dilution Method (pH 7.0); settings: Salmonella enterica
Method: (§2) Antibacterial activities of the product obtained in this Example are measured according to the Heart Infusion Agar Dilution Method (pH 7.0).

Vibrio percolans KY4174 = test: as above; settings: Comamonas terrigena
Method: as §2

Proteus vulgaris KY4277 = test: as above
Method: as §2

Escherichia coli KY4271 = test: as above
Method: as §2

[10] = system: Staphylococcus aureus KY4279; test: as above
Method: as §2

Bacillus subtilis KY4273 = test: as above
Method: as §2

Shigella sonnei KY4281 = test: as above
Method: as §2

Erwinia aroides KY3241 = test: as above
Method: as §2

[11] = system: Klebsiella pneumonia KY4275; test: as above; settings: Klebsiella pneumoniae
Method: as §2

[12] = Escherichia coli Juhl, agar dilution, read-out: MIC
[13] = NIHJC2, Escherichia coli NIHJC-2, agar dilution, pH 7.2, read-out: MIC

| MIC [1] [µg/mL] | MIC (Proteus vulgaris 6897) [µg/mL] | MIC [2] [µg/mL] | MIC (Escherichia coli Juhl; [12]) [µg/mL] | MIC [3] [µg/mL] | MIC (Serratia marcescens T-26) [µg/mL] | MIC (Proteus mirabilis 1287) [µg/mL] | MIC (Escherichia coli NIHJC-2; [13]) [µg/mL] | MIC (Serratia marcescens T-55) [µg/mL] | MIC (Proteus morganii KY4298) [µg/mL] | MIC [4] [µg/mL] | MIC (Proteus rettgeri KY4289) [µg/mL] | MIC [5] [µg/mL] | MIC [6] [µg/mL] | MIC (Pseudomonas putida F264) [µg/mL] | MIC [7] [µg/mL] | MIC [8] [µg/mL] | Compound | also measured |
| --- | --- | --- | --- | --- | --- | --- | --- | --- | --- | --- | --- | --- | --- | --- | --- | --- | --- | --- |
| 50 (≈ 138 µM) | ≥ 50 | ≥ 50 | ≥ 50 | ≥ 50 | ≥ 50 | ≥ 50 | ≥ 50 | ≥ 50 | ≥ 50 | ≥ 50 | ≥ 50 | ≥ 50 | ≥ 50 | ≥ 50 | ≥ 50 | ≥ 50 | CO/N=C(/C(=O)N[C@@H]1C(=O)N2C(C(=O)O)=CC=C[C@H]12)c1csc(N)n1 (relative stereo) [Example 6, (±)-cis-7-[2-(2-amino-4-thiazolyl)-2-anti-methoxyiminoacetamido]-1-azabicyclo[4,2,0]oct-2,4-diene-8-on-2-carboxylic acid] |  |
| 6.25 (≈ 17.2 µM) | 6.25 (≈ 17.2 µM) | ≥ 50 | 50 (≈ 138 µM) | ≥ 50 | ≥ 50 | 6.25 (≈ 17.2 µM) | 25 (≈ 68.8 µM) | 50 (≈ 138 µM) | 12.5 (≈ 34.4 µM) | ≥ 50 | 6.25 (≈ 17.2 µM) | ≥ 50 | ≥ 50 | 12.5 (≈ 34.4 µM) | 25 (≈ 68.8 µM) | ≥ 50 | CO/N=C(\C(=O)N[C@@H]1C(=O)N2C(C(=O)O)=CC=C[C@H]12)c1csc(N)n1 (relative stereo) [Example 8, (±)-cis-7-[2-(2-amino-4-thiazolyl)-2-syn-methoxyiminoacetamido]-1-azabicyclo[4,2,0]oct-2,4-diene-8-on-2-carboxylic acid] |  |
|  |  |  |  |  |  |  |  |  |  |  |  |  |  |  |  |  | O=C(Cc1cccs1)NC1C(=O)N2C(C(=O)O)=CC=CC12 (stereo not drawn) [Example 10, (±)-cis-7-[2-(thiophene-2-yl)acetylamino]-1-azabicyclo[4,2,0]oct-2,4-diene-8-on-2-carboxylic acid] | MIC [9]: 13.9 µg/mL (≈ 45.7 µM); MIC (Vibrio percolans KY4174): 55.6 µg/mL (≈ 183 µM); MIC (Proteus vulgaris KY4277): 27.8 µg/mL (≈ 91.3 µM); MIC (Escherichia coli KY4271): > 55.6 µg/mL; MIC [10]: 27.8 µg/mL (≈ 91.3 µM); MIC (Bacillus subtilis KY4273): 55.6 µg/mL (≈ 183 µM); MIC (Shigella sonnei KY4281): > 55.6 µg/mL; MIC (Erwinia aroides KY3241): 13.9 µg/mL (≈ 45.7 µM); MIC [11]: 27.8 µg/mL (≈ 91.3 µM) |

| Compound | MIC [1] [µg/mL] | MIC (Proteus vulgaris 6897) [µg/mL] | MIC [2] [µg/mL] | MIC (Escherichia coli Juhl; [12]) [µg/mL] | MIC [3] [µg/mL] | MIC (Serratia marcescens T-26) [µg/mL] | MIC (Proteus mirabilis 1287) [µg/mL] | MIC (Escherichia coli NIHJC-2; [13]) [µg/mL] | MIC (Serratia marcescens T-55) [µg/mL] | MIC (Proteus morganii KY4298) [µg/mL] | MIC [4] [µg/mL] | MIC (Proteus rettgeri KY4289) [µg/mL] | MIC [5] [µg/mL] | MIC [6] [µg/mL] | MIC (Pseudomonas putida F264) [µg/mL] | MIC [7] [µg/mL] | MIC [8] [µg/mL] | also measured |
| --- | --- | --- | --- | --- | --- | --- | --- | --- | --- | --- | --- | --- | --- | --- | --- | --- | --- | --- |
| Cc1nnc(SCC2=C(C(=O)O)N3C(=O)[C@@H](NC(=O)Cn4cnnn4)[C@H]3SC2)s1 [Cefazolin, reference compound] | 0.78 (≈ 1.72 µM) | 12.5 (≈ 27.5 µM) | < 0.05 |  | 0.78 (≈ 1.72 µM) | > 100 | 12.5 (≈ 27.5 µM) |  | 50 (≈ 110 µM) | > 100 | 3.12 (≈ 6.86 µM) | 25 (≈ 55 µM) | 0.4 (≈ 0.88 µM) | > 100 | > 100 |  |  | MIC (Escherichia coli Juhl; Escherichia coli): 1.56 µg/mL (≈ 3.43 µM); MIC (Escherichia coli NIHJC-2; Escherichia coli, NIHJC2, pH 7.2): 1.56 µg/mL (≈ 3.43 µM) |
